ChEMBL document CHEMBL4138241, “Synthesis and in vitro evaluation of novel substituted isatin-propylene-1H-1,2,3-triazole-4-methylene-moxifloxacin hybrids for their anti-mycobacterial activities” (Eur J Med Chem, 2018)
In brackets after ≈: the same amount, converted by molar mass.

Tested on: Mycobacterium tuberculosis
Experiment: Antimycobacterial activity against isoniazid/rifampicin/ethambutol-resistant Mycobacterium tuberculosis after 3 days by rapid direct susceptibility test
Assay type: functional
Details: 72 h

Structure (SMILES)	MIC
COc1c(N2C[C@H]3CCCN(Cc4cn(CCCN5C(=O)C(=O)c6ccccc65)nn4)[C@H]3C2)c(F)cc2c(=O)c(C(=O)O)cn(C3CC3)c12	1 µg/mL (≈ 1.49 µM)
CO[C@H]1/C=C/O[C@@]2(C)Oc3c(C)c(O)c4c(O)c(c(/C=N/N5CCN(C)CC5)c(O)c4c3C2=O)NC(=O)/C(C)=C\C=C\[C@H](C)[C@H](O)[C@@H](C)[C@@H](O)[C@@H](C)[C@H](OC(C)=O)[C@@H]1C [RIFAMPIN]	32 µg/mL (≈ 38.9 µM)
COc1c(N2C[C@H]3CCCN(Cc4cn(CCCN5C(=O)C(=O)c6cc(C)ccc65)nn4)[C@H]3C2)c(F)cc2c(=O)c(C(=O)O)cn(C3CC3)c12	1 µg/mL (≈ 1.46 µM)
CCO/N=C1/C(=O)N(CCCn2cc(CN3CCC[C@@H]4CN(c5c(F)cc6c(=O)c(C(=O)O)cn(C7CC7)c6c5OC)C[C@@H]43)nn2)c2ccc(C)cc21	0.25 µg/mL (≈ 0.344 µM)
COc1c(N2C[C@H]3CCCN(Cc4cn(CCCN5C(=O)/C(=N/O)c6cc(F)ccc65)nn4)[C@H]3C2)c(F)cc2c(=O)c(C(=O)O)cn(C3CC3)c12	0.25 µg/mL (≈ 0.356 µM)
CCO/N=C1/C(=O)N(CCCn2cc(CN3CCC[C@@H]4CN(c5c(F)cc6c(=O)c(C(=O)O)cn(C7CC7)c6c5OC)C[C@@H]43)nn2)c2ccccc21	0.25 µg/mL (≈ 0.351 µM)
COc1c(N2C[C@@H]3CCCN[C@@H]3C2)c(F)cc2c(=O)c(C(=O)O)cn(C3CC3)c12 [MOXIFLOXACIN]	0.12 µg/mL (≈ 0.299 µM)
COc1c(N2C[C@H]3CCCN(Cc4cn(CCCN5C(=O)C(=O)c6cc(F)ccc65)nn4)[C@H]3C2)c(F)cc2c(=O)c(C(=O)O)cn(C3CC3)c12	0.25 µg/mL (≈ 0.364 µM)
NNC(=O)c1ccncc1 [ISONIAZID]	> 128 µg/mL
CO/N=C1/C(=O)N(CCCn2cc(CN3CCC[C@@H]4CN(c5c(F)cc6c(=O)c(C(=O)O)cn(C7CC7)c6c5OC)C[C@@H]43)nn2)c2ccccc21	0.25 µg/mL (≈ 0.358 µM)
COc1c(N2C[C@H]3CCCN(Cc4cn(CCCN5C(=O)/C(=N/O)c6ccccc65)nn4)[C@H]3C2)c(F)cc2c(=O)c(C(=O)O)cn(C3CC3)c12	1 µg/mL (≈ 1.46 µM)
CO/N=C1/C(=O)N(CCCn2cc(CN3CCC[C@@H]4CN(c5c(F)cc6c(=O)c(C(=O)O)cn(C7CC7)c6c5OC)C[C@@H]43)nn2)c2ccc(F)cc21	0.06 µg/mL (≈ 0.0837 µM)
COc1c(N2C[C@H]3CCCN(Cc4cn(CCCN5C(=O)/C(=N/O)c6cc(C)ccc65)nn4)[C@H]3C2)c(F)cc2c(=O)c(C(=O)O)cn(C3CC3)c12	2 µg/mL (≈ 2.86 µM)
CCO/N=C1/C(=O)N(CCCn2cc(CN3CCC[C@@H]4CN(c5c(F)cc6c(=O)c(C(=O)O)cn(C7CC7)c6c5OC)C[C@@H]43)nn2)c2ccc(F)cc21	0.12 µg/mL (≈ 0.164 µM)
CO/N=C1/C(=O)N(CCCn2cc(CN3CCC[C@@H]4CN(c5c(F)cc6c(=O)c(C(=O)O)cn(C7CC7)c6c5OC)C[C@@H]43)nn2)c2ccc(C)cc21	0.5 µg/mL (≈ 0.701 µM)

Tested on: Mycobacterium tuberculosis
Experiment: Potency index, ratio of rifampicin MIC to compound MIC for antimycobacterial activity against isoniazid/rifampicin/ethambutol-resistant Mycobacterium tuberculosis
Assay type: functional
Details: not given

Structure (SMILES)	Ratio
CO/N=C1/C(=O)N(CCCn2cc(CN3CCC[C@@H]4CN(c5c(F)cc6c(=O)c(C(=O)O)cn(C7CC7)c6c5OC)C[C@@H]43)nn2)c2ccc(F)cc21	2 - 2048

Tested on: Mycobacterium tuberculosis
Experiment: Potency index, ratio of moxifloxacin MIC to compound MIC for antimycobacterial activity against isoniazid/rifampicin/ethambutol-resistant Mycobacterium tuberculosis
Assay type: functional
Details: not given

Structure (SMILES)	Ratio
CO/N=C1/C(=O)N(CCCn2cc(CN3CCC[C@@H]4CN(c5c(F)cc6c(=O)c(C(=O)O)cn(C7CC7)c6c5OC)C[C@@H]43)nn2)c2ccc(F)cc21	2 - 2048

Tested on: Mycobacterium tuberculosis
Experiment: Potency index, ratio of isoniazid MIC to compound MIC for antimycobacterial activity against isoniazid/rifampicin/ethambutol-resistant Mycobacterium tuberculosis
Assay type: functional
Details: not given

Structure (SMILES)	Ratio
CO/N=C1/C(=O)N(CCCn2cc(CN3CCC[C@@H]4CN(c5c(F)cc6c(=O)c(C(=O)O)cn(C7CC7)c6c5OC)C[C@@H]43)nn2)c2ccc(F)cc21	2 - 2048
